Drawing on US20120225061A1, “TETRASUBSTITUTED CYCLOHEXYL COMPOUNDS AS KINASE INHIBITORS” (priority 2011, published 2012), this text covers EC50 and IC50 for 19 molecules.

Experiment [1] has as its system KMS11 (human myeloma cell line). Description: Cell proliferation assay (CellTiter-Glo) in KMS11 cells. The experiment is classed as cell-based. The note with it: KMS-11, 72 h, Table 5, 3 days, read-out: KMS11-luc EC50. The gist of the method:
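KMS11 cells at 2000 per well in IMDM/10% FBS were exposed to compound for 3 days. Viability was read by CellTiter-Glo luminescence.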
A general note: ATP-based viability assays read luminescence as a measure of living cells.

In the next experiment the target is Pim1 kinase (Homo sapiens, UniProt P11309). Nature of the experiment: Pim1 AlphaScreen assay (high ATP). (In Alpha technology, singlet oxygen from a donor bead excites a nearby acceptor bead.)
A further experiment has as its target Pim2 kinase (Homo sapiens, UniProt Q9P1W9). Nature of the experiment: Pim2 AlphaScreen assay (high ATP).
The target in a further experiment is Pim3 kinase (Homo sapiens, UniProt Q86V86). Description: Pim3 AlphaScreen assay (high ATP).

Pim1 kinase, sequence (P11309 whole entry): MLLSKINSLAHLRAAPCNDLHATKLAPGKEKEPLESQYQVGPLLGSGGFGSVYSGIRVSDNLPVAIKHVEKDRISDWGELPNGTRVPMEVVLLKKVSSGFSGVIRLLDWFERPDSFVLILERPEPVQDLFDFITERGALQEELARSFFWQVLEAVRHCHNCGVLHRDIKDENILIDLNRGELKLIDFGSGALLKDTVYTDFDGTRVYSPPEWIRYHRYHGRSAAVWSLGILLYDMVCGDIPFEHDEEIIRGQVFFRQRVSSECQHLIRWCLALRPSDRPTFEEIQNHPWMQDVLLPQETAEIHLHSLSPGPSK
Pim2 kinase, sequence (Q9P1W9 whole entry): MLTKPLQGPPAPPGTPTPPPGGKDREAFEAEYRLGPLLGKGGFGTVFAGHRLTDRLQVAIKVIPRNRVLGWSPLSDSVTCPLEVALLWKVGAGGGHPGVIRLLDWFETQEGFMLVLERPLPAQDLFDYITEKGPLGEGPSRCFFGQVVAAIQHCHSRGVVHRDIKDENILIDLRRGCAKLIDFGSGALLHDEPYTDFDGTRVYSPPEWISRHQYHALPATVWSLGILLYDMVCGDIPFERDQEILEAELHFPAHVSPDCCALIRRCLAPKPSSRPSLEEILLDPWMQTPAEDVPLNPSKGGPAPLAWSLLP
Procedure for Pim2 kinase: The activity of Pim 1, Pim 2, & Pim 3 is measured using a homogeneous bead based system quantifying the amount of phosphorylated peptide substrate resulting from kinase-catalyzed phosphoryl transfer to a peptide substrate. Compounds to be tested are dissolved in 100% DMSO and directly distributed to a white 384-well plate at 0.25 μl per well. […] This is followed by the addition of 5 μl/well of Pim 1, Pim 2 or Pim 3 kinase in assay buffer (concentrations described below). Final assay concentrations (described below) are in 2.5% DMSO. The reactions are performed for ˜2 hours, then stopped by the addition of 10 μl of 0.75 μg/ml anti-phospho Ser/Thr antibody (Cell Signaling), 10 μg/ml Protein A AlphaScreen beads (Perkin Elmer), and 10 μg/ml streptavidin coated AlphaScreen beads in stop/detection buffer (50 mM EDTA, 95 mM Tris, pH=7.5, 0.01% Tween-20). The stopped reactions are incubated overnight in the dark. The phosphorylated peptide is detected via an oxygen anion initiated chemiluminescence/fluorescence cascade using the Envision plate reader (Perkin Elmer).

By EC50 is commonly meant the concentration giving half of the maximal effect. By IC50 is commonly meant the point on the concentration scale where inhibition reaches its midpoint. A higher IC50 goes with weaker potency. `C[C@H]1C[C@@H](c2ccncc2NC(=O)c2ccc(F)c(-c3c(F)cc(C4(O)CCC4)cc3F)n2)C[C@@H](O)[C@]1(C)O` [Example 105, 6-(2,6-difluoro-4-(1-hydroxycyclobutyl)phenyl)-N-(4-((1R,3R,4R,5S)-3,4-dihydroxy-4,5-dimethylcyclohexyl)pyridin-3-yl)-5-fluoropicolinamide]: the EC50 in experiment [1] was 2980 nM. Moreover, the IC50 at Pim1 kinase came out at 0.55 nM; on Pim2 kinase, 120 nM; at Pim3 kinase, 78.3 nM.

`C[C@H]1C[C@@H](c2ccncc2NC(=O)c2ccc(F)c(-c3c(F)cc4c(c3F)OCC4)n2)C[C@@H](N)[C@]1(C)O` [Example 102, N-(4-((1R,3R,4R,5S)-3-amino-4-hydroxy-4,5-dimethylcyclohexyl)pyridin-3-yl)-6-(5,7-difluoro-2,3-dihydrobenzofuran-6-yl)-5-fluoropicolinamide]: in experiment [1], the EC50 is 175 nM. Moreover, the figures for the IC50 on Pim1 kinase, at Pim2 kinase and on Pim3 kinase were 0.02 nM, 1.5 nM and 0.61 nM, respectively.

Regarding `C[C@H]1C[C@@H](c2ccncc2NC(=O)c2ccc(F)c(-c3c(F)cc(C(C)(C)O)cc3F)n2)C[C@@H](N)[C@]1(C)O` [Example 66], in experiment [1], the EC50 was found to be 13 nM. In addition, the IC50 at Pim1 kinase stood at 0.03 nM; at Pim2 kinase it was 2.92 nM; at Pim3 kinase it was 1.64 nM.

Regarding `C[C@H]1C[C@@H](c2ccncc2NC(=O)c2ccc(F)c(-c3c(F)cc(CN4CCCC4=O)cc3F)n2)C[C@@H](O)[C@]1(C)O` [Example 77, 6-(2,6-difluoro-4-((2-oxopyrrolidin-1-yl)methyl)phenyl)-N-(4-((1R,3R,4R,5S)-3,4-dihydroxy-4,5-dimethylcyclohexyl)pyridin-3-yl)-5-fluoropicolinamide], the EC50 in experiment [1] came out at 136 nM. Besides, the IC50 on Pim1 kinase was 0.97 nM; on Pim2 kinase it was 93.7 nM; against Pim3 kinase, 83.3 nM.

Turning to `C[C@H]1C[C@@H](c2ccncc2NC(=O)c2ccc(F)c(-c3c(F)cc(C4(F)CCOCC4)cc3F)n2)C[C@@H](O)[C@]1(C)O` [Example 113, 6-(2,6-difluoro-4-(4-fluorotetrahydro-2H-pyran-4-yl)phenyl)-N-(4-((1R,3R,4R,5S)-3,4-dihydroxy-4,5-dimethylcyclohexyl)pyridin-3-yl)-5-fluoropicolinamide], in experiment [1], the EC50 was found to be 248 nM. For the same molecule, the IC50 was 0.55 nM against Pim1 kinase, 128 nM against Pim2 kinase and 127 nM on Pim3 kinase.

Regarding `C[C@@H]1C[C@H](c2ccncc2NC(=O)c2ccc(F)c(-c3c(F)cc(C4(O)CCCC4)cc3F)n2)C[C@H](O)[C@@]1(C)O` [Example 79, 6-(2,6-difluoro-4-(1-hydroxycyclopentyl)phenyl)-N-(4-((1S,3S,4S,5R)-3,4-dihydroxy-4,5-dimethylcyclohexyl)pyridin-3-yl)-5-fluoropicolinamide], the EC50 in experiment [1] was more than 10000 nM. In addition, the IC50 came to 6.73 nM against Pim1 kinase, 619 nM against Pim2 kinase and 470 nM against Pim3 kinase.

Regarding `CC(C)OCc1cc(F)c(-c2nc(C(=O)Nc3cnccc3[C@H]3C[C@@H](N)[C@](C)(O)[C@@H](C)C3)ccc2F)c(F)c1` [Example 91, N-(4-((1R,3R,4R,5S)-3-amino-4-hydroxy-4,5-dimethylcyclohexyl)pyridin-3-yl)-6-(2,6-difluoro-4-(isopropoxymethyl)phenyl)-5-fluoropicolinamide], the EC50 in experiment [1] came out at 102 nM. Further, the IC50 against Pim1 kinase came out at 0.07 nM; against Pim2 kinase, 2.4 nM; on Pim3 kinase it was 1.62 nM.

With `C[C@H]1C[C@@H](c2ccncc2NC(=O)c2nc(-c3c(F)cc(C4(F)CCOCC4)cc3F)sc2N)C[C@@H](N)[C@]1(C)O` [Example 84, 5-amino-N-(4-((1R,3R,4R,5S)-3-amino-4-hydroxy-4,5-dimethylcyclohexyl)pyridin-3-yl)-2-(2,6-difluoro-4-(4-fluorotetrahydro-2H-pyran-4-yl)phenyl)thiazole-4-carboxamide], the EC50 in experiment [1] stood at 343 nM. Also, the IC50 was determined as 0.01 nM against Pim1 kinase, 2.8 nM against Pim2 kinase and 0.48 nM against Pim3 kinase.

Turning to `C[C@H]1C[C@@H](c2ccncc2NC(=O)c2ccc(F)c(-c3c(F)cc(C4(F)COC4)cc3F)n2)C[C@@H](N)[C@]1(C)O` [Example 69, N-(4-((1R,3R,4R,5S)-3-amino-4-hydroxy-4,5-dimethylcyclohexyl)pyridin-3-yl)-6-(2,6-difluoro-4-(3-fluorooxetan-3-yl)phenyl)-5-fluoropicolinamide], the EC50 in experiment [1] turned out to be 423 nM. Also, the results for the IC50 at Pim1 kinase, at Pim2 kinase and against Pim3 kinase were 0.09 nM, 6.42 nM and 4.2 nM, respectively.

With `C[C@H]1C[C@@H](c2ccncc2NC(=O)c2nc(-c3c(F)cc(C4(O)CCOCC4)cc3F)sc2N)C[C@@H](N)[C@]1(C)O` [Example 83, 5-amino-N-(4-((1R,3R,4R,5S)-3-amino-4-hydroxy-4,5-dimethylcyclohexyl)pyridin-3-yl)-2-(2,6-difluoro-4-(4-hydroxytetrahydro-2H-pyran-4-yl)phenyl)thiazole-4-carboxamide], the EC50 in experiment [1] was 9300 nM. The IC50 at Pim1 kinase was 0.03 nM; against Pim2 kinase, 3.71 nM; against Pim3 kinase it was 0.71 nM.

As for `CC(C)Oc1cc(F)c(-c2nc(C(=O)Nc3cnccc3[C@H]3C[C@@H](O)[C@](C)(O)[C@@H](C)C3)c(N)cc2F)c(F)c1` [Example 99, 3-amino-6-(2,6-difluoro-4-isopropoxyphenyl)-N-(4-((1R,3R,4R,5S)-3,4-dihydroxy-4,5-dimethylcyclohexyl)pyridin-3-yl)-5-fluoropicolinamide], the EC50 in experiment [1] was 1150 nM. The results for the IC50 against Pim1 kinase, at Pim2 kinase and on Pim3 kinase were 0.96 nM, 107 nM and 45.5 nM, respectively.

Regarding `C[C@H]1C[C@@H](c2ccncc2NC(=O)c2ccc(F)c(-c3c(F)cc(C4CCOCC4)cc3F)n2)C[C@@H](O)[C@]1(C)O` [Example 108, 6-(2,6-difluoro-4-(tetrahydro-2H-pyran-4-yl)phenyl)-N-(4-((1R,3R,4R,5S)-3,4-dihydroxy-4,5-dimethylcyclohexyl)pyridin-3-yl)-5-fluoropicolinamide], the EC50 in experiment [1] was 206 nM. Also, the IC50 on Pim1 kinase was 0.2 nM; on Pim2 kinase it was 66.2 nM; against Pim3 kinase, 30.7 nM.

Regarding `C[C@H]1C[C@@H](c2ccncc2NC(=O)c2ccc(F)c(-c3c(F)cc(C4CCS(=O)(=O)CC4)cc3F)n2)C[C@@H](O)C1(C)O` (stereo in doubt) [Example 120, N-(4-((1R,3R,4S,5S)-3,4-dihydroxy-4,5-dimethylcyclohexyl)pyridin-3-yl)-6-(4-(1,1-dioxidotetrahydro-2H-thiopyran-4-yl)-2,6-difluorophenyl)-5-fluoropicolinamide], in experiment [1], the EC50 came to 723 nM. The IC50 against Pim1 kinase was 0.26 nM; at Pim2 kinase, 48.7 nM; on Pim3 kinase, 31.5 nM.

In the case of `C[C@H]1C[C@@H](c2ccncc2NC(=O)c2ccc(F)c(-c3c(F)cc(C(C)(C)C#N)cc3F)n2)C[C@@H](N)[C@]1(C)O` [Example 86, N-(4-((1R,3R,4R,5S)-3-amino-4-hydroxy-4,5-dimethylcyclohexyl)pyridin-3-yl)-6-(4-(2-cyanopropan-2-yl)-2,6-difluorophenyl)-5-fluoropicolinamide], in experiment [1], the EC50 stood at 66 nM. Further, the IC50 at Pim1 kinase is 0.03 nM; against Pim2 kinase it was 2.74 nM; against Pim3 kinase it was 2.46 nM.

Turning to `CC(C)Oc1cc(F)c(-c2nc(C(=O)Nc3cnccc3[C@H]3C[C@@H](N)[C@](C)(O)[C@@H](C)C3)ccc2F)c(F)c1` [Example 64, N-(4-((1R,3R,4R,5S)-3-amino-4-hydroxy-4,5-dimethylcyclohexyl)pyridin-3-yl)-6-(2,6-difluoro-4-isopropoxyphenyl)-5-fluoropicolinamide], the EC50 in experiment [1] was determined as 165 nM. In addition, the IC50 on Pim1 kinase came to 0.02 nM; at Pim2 kinase it was 1.54 nM; against Pim3 kinase, 0.54 nM.

`C[C@H]1C[C@@H](c2ccncc2NC(=O)c2nc(-c3c(F)cc(C(C)(C)O)cc3F)c(F)cc2N)C[C@@H](O)[C@]1(C)O` [Example 97, 3-amino-6-(2,6-difluoro-4-(2-hydroxypropan-2-yl)phenyl)-N-(4-((1R,3R,4R,5S)-3,4-dihydroxy-4,5-dimethylcyclohexyl)pyridin-3-yl)-5-fluoropicolinamide]: the EC50 in experiment [1] was 405 nM. The IC50 at Pim1 kinase is 0.24 nM; against Pim2 kinase it was 28.9 nM; against Pim3 kinase, 8.24 nM.

Turning to `C[C@H]1C[C@@H](c2ccncc2NC(=O)c2ccc(F)c(-c3c(F)cc(O[C@@H]4CCCOC4)cc3F)n2)C[C@@H](N)[C@]1(C)O` [Example 148, N-(4-((1R,3R,4R,5S)-3-amino-4-hydroxy-4,5-dimethylcyclohexyl)pyridin-3-yl)-6-(2,6-difluoro-4-((R)-tetrahydro-2H-pyran-3-yloxy)phenyl)-5-fluoropicolinamide], the 50% effective concentration (EC50) in experiment [1] stood at 85 nM. For the same molecule, the IC50 against Pim1 kinase stood at 0.02 nM; against Pim2 kinase, 1.45 nM; on Pim3 kinase, 0.65 nM.

With `C[C@H]1C[C@@H](c2ccncc2NC(=O)c2ccc(F)c(-c3c(F)cc(C4(O)CCC4)cc3F)n2)C[C@@H](N)[C@]1(C)O` [Example 95, N-(4-((1R,3R,4R,5S)-3-amino-4-hydroxy-4,5-dimethylcyclohexyl)pyridin-3-yl)-6-(2,6-difluoro-4-(1-hydroxycyclobutyl)phenyl)-5-fluoropicolinamide], the EC50 in experiment [1] came out at 174 nM. Further, the results for the IC50 on Pim1 kinase, against Pim2 kinase and on Pim3 kinase were 0.04 nM, 3.85 nM and 2.37 nM, respectively.

Turning to `Cc1cc(F)c(-c2nc(C(=O)Nc3cnccc3[C@H]3C[C@@H](N)[C@](C)(O)[C@@H](C)C3)ccc2F)c(F)c1` [Example 13, N-(4-((1R,3R,4R,5S)-3-amino-4-hydroxy-4,5-dimethylcyclohexyl)pyridin-3-yl)-6-(2,6-difluoro-4-methylphenyl)-5-fluoropicolinamide], the EC50 in experiment [1] worked out at 42 nM. Further, the values for the IC50 at Pim1 kinase, against Pim2 kinase and on Pim3 kinase were 0.07 nM, 4.33 nM and 1.16 nM, respectively.
